Consider 35 molecules from patent publication US20050054696A1, “Indole compounds and medicinal use thereof” (priority 2001, published 2005).

Molecules are shown by their SMILES.

This assay deals with T1, recombinant human liver glycogen phosphorylase (HLGPa) (Homo sapiens, UniProt P06737).
T1 construct: made in house; host or cells: Sf9 insect cells (unpurified cell lysate used as enzyme solution)
T1 sequence (P06737 1-847): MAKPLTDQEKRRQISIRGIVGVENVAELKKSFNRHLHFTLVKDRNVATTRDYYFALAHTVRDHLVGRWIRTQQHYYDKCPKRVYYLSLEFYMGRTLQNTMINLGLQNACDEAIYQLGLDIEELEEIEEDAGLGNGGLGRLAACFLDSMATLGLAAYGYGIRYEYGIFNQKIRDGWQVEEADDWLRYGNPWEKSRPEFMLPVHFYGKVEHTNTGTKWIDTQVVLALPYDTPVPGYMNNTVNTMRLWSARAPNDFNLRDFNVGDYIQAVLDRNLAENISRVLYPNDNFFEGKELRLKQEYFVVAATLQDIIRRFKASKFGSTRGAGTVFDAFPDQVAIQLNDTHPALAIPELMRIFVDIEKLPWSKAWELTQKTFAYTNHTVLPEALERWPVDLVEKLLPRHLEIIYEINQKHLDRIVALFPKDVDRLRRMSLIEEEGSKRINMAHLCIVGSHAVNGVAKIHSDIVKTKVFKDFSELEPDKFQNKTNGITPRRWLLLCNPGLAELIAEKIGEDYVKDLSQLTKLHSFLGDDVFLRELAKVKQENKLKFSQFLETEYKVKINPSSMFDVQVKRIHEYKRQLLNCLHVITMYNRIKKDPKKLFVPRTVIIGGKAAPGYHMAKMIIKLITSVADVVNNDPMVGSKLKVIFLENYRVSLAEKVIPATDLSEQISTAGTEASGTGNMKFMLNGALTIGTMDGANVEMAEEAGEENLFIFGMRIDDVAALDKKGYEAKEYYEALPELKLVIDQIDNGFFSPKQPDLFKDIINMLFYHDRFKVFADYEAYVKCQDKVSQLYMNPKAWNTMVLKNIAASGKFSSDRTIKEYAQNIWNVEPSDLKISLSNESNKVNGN
The assay is described as follows: Measurement of liver glycogen phosphorylase activity (enzyme inhibitory activity against HLGPa). Format: biochemical. The note with it: Sf9 cell lysate expressing recombinant enzyme; reverse reaction (glycogen synthesis from G1-P), phosphate by malachite green, 60 min room temperature. The gist of the method: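 Activity was run in the reverse, glycogen-synthesis direction, using Sf9 lysate expressing recombinant human liver glycogen phosphorylase (enzyme solution 80 μg/mL protein, pH 7.0). Substrate solution was Tris pH 7.2 with 1.25 mM glucose-1-phosphate, 2.5 mg/ml glycogen and 7.5 mM glucose, reacted 60 min at room temperature. Released phosphate was measured by malachite green A650, with % inhibition taken against DMSO control and no-enzyme blank.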
Take `COc1ccccc1C(=O)NNC(=O)c1cc2cc(Cl)ccc2[nH]1` [Example 1-15, 2-methoxybenzoic acid 2-(5-chloro-1H-indole-2-carbonyl)hydrazide]: the IC50 is 120 nM.
The result for `Cc1cccc(C(=O)NNC(=O)c2cc3cc(Cl)ccc3[nH]2)c1` [Example 1-18, 3-methylbenzoic acid 2-(5-chloro-1H-indole-2-carbonyl)hydrazide] reads 99 nM; that for `Cc1ccc2[nH]c(C(=O)NN3C(=O)CCN(c4ccccc4)C3=O)cc2c1` [Example 3-10, 5-methyl-1H-indole-2-carboxylic acid (2,4-dioxo-1-phenyl-perhydropyrimidin-3-yl)amide], 440 nM.
The result for `O=C(NNC(=O)c1cc2cc(Cl)ccc2[nH]1)c1cn[nH]c1` [Example 1-104, 1H-pyrazole-4-carboxylic acid 2-(5-chloro-1H-indole-2-carbonyl)hydrazide] reads 21 nM.
The result for `O=C(NNC(=O)c1cc2cc(Cl)ccc2[nH]1)Nc1cccc(F)c1` [Example 5-6, 5-chloro-1H-indole-2-carboxylic acid 2-((3-fluorophenyl)aminocarbonyl)hydrazide] reads 49 nM; that for `Cc1ccsc1C(=O)NNC(=O)c1cc2cc(Cl)ccc2[nH]1` [Example 1-89, 3-methylthiophene-2-carboxylic acid 2-(5-chloro-1H-indole-2-carbonyl)hydrazide], 450 nM.
For the molecule `Nc1ccc(Cl)cc1C(=O)NNC(=O)c1cc2cc(Cl)ccc2[nH]1` [Example 1-57, 2-amino-5-chlorobenzoic acid 2-(5-chloro-1H-indole-2-carbonyl)hydrazide], the IC50 is 30 nM.
The result for `Cc1ccc2[nH]c(C(=O)NNC(=O)c3ccccc3)cc2c1` [Example 1-33, benzoic acid 2-(5-methyl-1H-indole-2-carbonyl)hydrazide] reads 86 nM; that for `CC(C)c1ccc2[nH]c(C(=O)NNC(=O)c3ccc(F)cc3N)cc2c1` [Example 1-37, 2-amino-4-fluorobenzoic acid 2-(5-isopropyl-1H-indole-2-carbonyl)hydrazide], over 100 nM; that for `CC(=O)Nc1cccc(C(=O)NNC(=O)c2cc3cc(Cl)ccc3[nH]2)c1` [Example 1-46, N-(3-(2-(5-chloro-1H-indole-2-carbonyl)hydrazinocarbonyl)phenyl)acetamide], 290 nM.
The result for `CN(NC(=O)c1cc2cc(Cl)ccc2[nH]1)C(=O)C1CCCCC1` [Example 1-116, cyclohexanecarboxylic acid 2-(5-chloro-1H-indole-2-carbonyl)-1-methylhydrazide] reads 41 nM.
The result for `CC(=O)N[C@H](C(=O)NNC(=O)c1cc2cc(Cl)ccc2[nH]1)c1ccccc1` (stereo in doubt) [Example 5-19, N-(2-(2-(5-chloro-1H-indole-2-carbonyl)hydrazino)-2-oxo-1-phenylethyl)acetamide] reads 360 nM; that for `O=C(NNC(=O)c1cccs1)c1cc2cc(F)ccc2[nH]1` [Example 1-11, thiophene-2-carboxylic acid 2-(5-fluoro-1H-indole-2-carbonyl)hydrazide], 72 nM.
Take `Nc1ccccc1C(=O)NNC(=O)c1cc2cc(F)ccc2[nH]1` [Example 1-38, 2-aminobenzoic acid 2-(5-fluoro-1H-indole-2-carbonyl)hydrazide]: the IC50 is over 100 nM.
The result for `O=C(NNC(=O)c1cc2cc(Cl)ccc2[nH]1)c1cccnc1` [Example 1-43, nicotinic acid 2-(5-chloro-1H-indole-2-carbonyl)hydrazide] reads 95 nM; that for `O=C(NNC(=O)c1cc2cc(Cl)ccc2[nH]1)Nc1ccccc1F` [Example 5-5, 5-chloro-1H-indole-2-carboxylic acid 2-((2-fluorophenyl)aminocarbonyl)hydrazide], 79 nM; that for `O=C(NNC(=O)c1cc2cc(Cl)ccc2[nH]1)c1ccsc1` [Example 1-83, thiophene-3-carboxylic acid 2-(5-chloro-1H-indole-2-carbonyl)hydrazide], 880 nM.
Regarding `Cc1nc(C(=O)NNC(=O)c2cc3cc(Cl)ccc3[nH]2)cs1` [Example 1-72, 2-methylthiazole-4-carboxylic acid 2-(5-chloro-1H-indole-2-carbonyl)hydrazide], the IC50 is over 100 nM.
The result for `Nc1cc(Cl)ccc1C(=O)NNC(=O)c1cc2cc(Cl)ccc2[nH]1` [Example 1-54, 2-amino-4-chlorobenzoic acid 2-(5-chloro-1H-indole-2-carbonyl)hydrazide] reads 30 nM.
`O=C(NNC(=O)c1cc2cc(OCc3ccccc3)ccc2[nH]1)c1ccccc1` [Example 1-123, benzoic acid 2-(5-benzyloxy-1H-indole-2-carbonyl)hydrazide]: the IC50 was over 100 nM.
The result for `O=C(NNC(=O)c1cc2sccc2[nH]1)c1cc2cc(Cl)ccc2[nH]1` [Example 1-108, 4H-thieno[3,2-b]pyrrole-5-carboxylic acid 2-(5-chloro-1H-indole-2-carbonyl)hydrazide] reads 56 nM; that for `O=C(NNC(=O)c1cc2cc(Cl)ccc2[nH]1)c1ccncc1` [Example 1-42, isonicotinic acid 2-(5-chloro-1H-indole-2-carbonyl)hydrazide], 260 nM; that for `O=C(NNC(=O)c1cc2cc(Cl)ccc2[nH]1)c1cccc(C(F)(F)F)c1` [Example 1-30, 3-trifluoromethylbenzoic acid 2-(5-chloro-1H-indole-2-carbonyl)hydrazide], 240 nM.
The result for `CS(=O)(=O)O.N=C(Cc1ccccc1)NNC(=O)c1cc2cc(Cl)ccc2[nH]1` [Example 6-21, 5-chloro-1H-indole-2-carboxylic acid 2-((1-imino-2-phenylethyl)hydrazide methanesulfonate] reads 84 nM; that for `N=C(NNC(=O)c1cc2cc(Cl)ccc2[nH]1)c1c(F)cccc1Cl` [Example 1-138, 5-chloro-1H-indole-2-carboxylic acid 2-((2-chloro-6-fluorophenyl)-imino-methyl)hydrazide], 460 nM; that for `O=C(NN1C(=O)N[C@H](Cc2ccccc2)C1=O)c1cc2cc(Cl)ccc2[nH]1` [Example 4-10, 5-chloro-1H-indole-2-carboxylic acid ((4R)-4-benzyl-2,5-dioxoimidazolidin-1-yl)amide], over 100 nM.
The result for `N[C@H](C(=O)NNC(=O)c1cc2cc(Cl)ccc2[nH]1)c1ccccc1` [Example 5-18, 5-chloro-1H-indole-2-carboxylic acid 2-((2S)-2-amino-2-phenylacetyl)hydrazide] reads over 100 nM; that for `N=C(NNC(=O)c1cc2cc(Cl)ccc2[nH]1)c1cnccn1` [Example 1-140, 5-chloro-1H-indole-2-carboxylic acid 2-(imino-(pyrazin-2-yl)-methyl)hydrazide], 180 nM; that for `O=C(NNC(=O)c1ccccc1O)c1cc2cc(Cl)ccc2[nH]1` [Example 1-3, 2-hydroxybenzoic acid 2-(5-chloro-1H-indole-2-carbonyl)hydrazide], 37 nM.
Turning to `O=C(NNC(=O)c1ccco1)c1cc2cc(Cl)ccc2[nH]1` [Example 1-78, furan-2-carboxylic acid 2-(5-chloro-1H-indole-2-carbonyl)hydrazide], the IC50 was 18 nM.
Regarding `O=C(NN1C(=O)CCN(c2ccc(F)cc2)C1=O)c1cc2cc(Cl)ccc2[nH]1` [Example 3-5, 5-chloro-1H-indole-2-carboxylic acid (1-(4-fluorophenyl)-2,4-dioxoperhydropyrimidin-3-yl)amide], the IC50 stood at 190 nM.
The result for `O=C(NN1C(=O)[C@@H]2CCCN2C1=O)c1cc2cc(Cl)ccc2[nH]1` [Example 4-7, 5-chloro-1H-indole-2-carboxylic acid ((4S)-1,3-dioxo-perhydropyrrolo[1,2-c]imidazol-2-yl)amide] reads over 100 nM; that for `Cc1ccc2[nH]c(C(=O)NNC(=O)c3ccsc3)cc2c1` [Example 1-107, thiophene-3-carboxylic acid 2-(5-methyl-1H-indole-2-carbonyl)hydrazide], 54 nM.
The result for `O=C(NN1CN(c2ccccc2)CC1=O)c1cc2cc(Cl)ccc2[nH]1` [Example 4-4, N-(1-oxo-4-phenylimidazolidin-2-yl)-5-chloro-1H-indole-2-carboxamide] reads over 100 nM.
The result for `CC(C)c1ccc2[nH]c(C(=O)Nn3c(=O)[nH]c4ccccc4c3=O)cc2c1` [Example 2-9, 5-isopropyl-1H-indole-2-carboxylic acid (1,2,3,4-tetrahydro-2,4-dioxoquinazolin-3-yl)amide] reads over 100 nM.

One may read the IC50 as the concentration at which inhibition is half-maximal.
